One assay has as its system Mice. Nature of the assay: Acute pain: mouse tail flick. To be noted: for MPE, tail flick: model of acute pain (FIG. 3).
Assay [1] has as its system healthy volunteer population. Nature of the assay: Subjective effects in humans (psychedelic experience questionnaires, 5D-ASC, VAS). Format: in vivo. The method, then: Doses of any of the compounds herein can be 20-300 mg. […] Compounds can be administered a single dose or multiple doses, up to three times per day. […] The compounds can be administered before, during, or after the individual has the sensation of pain.

Structures are written as SMILES.

For the compound `CN[C@H](C)Cc1ccc2c(c1)OCO2` [R-MDMA], in the assay with Mice (R-MDMA 17 and 30 mg/kg PO, 30, 60 and 90 minutes after administration, comparable to morphine (FIG. 2)), the “latency of the tail flick” value is “statistically significant increase”. The “MPE, tail flick” value with Mice (R-MDMA 17 and 30 mg/kg PO) turned out to be 60%. In addition, the “% MPE (percent of maximal possible effect), tail flick” value in the assay on Mice (R-MDMA treated animals, 60 and 90 minutes post-treatment) was “significantly increased”. In addition, in assay [1] (R-MDMA 75 mg, 125 mg, 175 mg or 225 mg, compared to racemic MDMA), the “subjective experience on standard psychedelic experience questionnaires” value was “differentiated subjective experience”. In addition, the “measures of emotional breakthrough” value in assay [1] (R-MDMA 75 mg, 125 mg, 175 mg or 225 mg, healthy volunteer population) is “dose dependent changes”. The “psychedelic-type effects (5D-ASC total OAV score)” value in assay [1] (R-MDMA 300 mg compared with S-MDMA (125 mg), expected) is recorded as “greater psychedelic-type effects”.

As for `CN[C@@H](C)Cc1ccc2c(c1)OCO2` [S-MDMA], the “subjective stimulation (VAS)” value in assay [1] (125 mg of S-MDMA vs 125 mg of R-MDMA, postulated) is “greater subjective stimulation”.

With `CN1CC[C@]23c4c5ccc(O)c4O[C@H]2[C@@H](O)C=C[C@H]3[C@H]1C5` [morphine, reference compound], in the assay on Mice (morphine 4 mg/kg SC), the “MPE, tail flick” value came out at 80%.
